For twelve molecules, TGI results are on record in PubChem BioAssay (NCI).

Among the test systems are HT29 colon; SK-MEL-28 melanoma; HCT-116 colon; HOP-92 NSCLC; DU-145 prostate; NCI/ADR-RES ovarian; SF-268 CNS; COLO 205 colon; IGROV1 ovarian; ACHN renal; U251 CNS; CCRF-CEM leukemia; UO-31 renal; OVCAR-5 ovarian; SF-539 CNS; SN12C renal; HCC-2998 colon; EKVX NSCLC; HOP-62 NSCLC.
Holding throughout (test): growth of human tumour cells (NCI), 48 h

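Briefly, cells in 96-well plates were exposed to five compound concentrations for 48 h, and endpoints were estimated by linear interpolation. The concentration for full growth arrest is given as TGI.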 Bounds are passed on as bounds.

Regarding `COC(=O)C1=C(O)CCCC(CCC(C)=O)=C1`, the TGI in the experiment on HT29 colon is over 100 µM; in the experiment with SK-MEL-28 melanoma, over 100 µM; in the experiment on HCT-116 colon it was 36.1 µM; in the experiment on HOP-92 NSCLC, 95.7 µM; in the experiment with DU-145 prostate, over 100 µM; in the experiment on NCI/ADR-RES ovarian, over 100 µM. Moreover, the TGI was over 100 µM in the experiment with SF-268 CNS; 55.2 µM in the experiment with COLO 205 colon; over 100 µM with IGROV1 ovarian; over 100 µM in the experiment with ACHN renal; over 100 µM in the experiment on U251 CNS; 25.2 µM with CCRF-CEM leukemia. Moreover, the TGI in the experiment with UO-31 renal is over 100 µM; with OVCAR-5 ovarian, over 100 µM; in the experiment on SF-539 CNS, 61.1 µM; with SN12C renal, over 100 µM; with HCC-2998 colon, over 100 µM; with EKVX NSCLC, over 100 µM.

On to `C/C(=N\Nc1nc2ccccc2o1)c1cc(C)ncn1`, for which the TGI is 14.8 µM in the experiment on HT29 colon; over 100 µM in the experiment with SK-MEL-28 melanoma; over 100 µM with HCT-116 colon; over 21.7 µM in the experiment on HOP-92 NSCLC; over 100 µM in the experiment with DU-145 prostate; 0.0739 µM in the experiment with NCI/ADR-RES ovarian. Further, the TGI is over 35.3 µM in the experiment on HOP-62 NSCLC; over 40.8 µM with COLO 205 colon; 1.51 µM with IGROV1 ovarian; 29.3 µM with ACHN renal; over 100 µM in the experiment on U251 CNS; over 100 µM with CCRF-CEM leukemia. The TGI in the experiment with UO-31 renal was 0.311 µM; with OVCAR-5 ovarian, 26.8 µM; with SF-539 CNS, 5.77 µM; with SN12C renal, over 100 µM; with HCC-2998 colon, over 48.6 µM; with EKVX NSCLC, 2.95 µM.

In the case of `Nc1nc(NCC2(CO)CCC2)cc(=O)[nH]1`, the TGI in the experiment on HT29 colon, in the experiment with SK-MEL-28 melanoma, in the experiment with HCT-116 colon, in the experiment on HOP-92 NSCLC, in the experiment on DU-145 prostate and in the experiment with NCI/ADR-RES ovarian was over 100 µM throughout. The TGI in the experiment on SF-268 CNS, with HOP-62 NSCLC, with COLO 205 colon, with IGROV1 ovarian, with U251 CNS and in the experiment on CCRF-CEM leukemia was over 100 µM in each case. For the same molecule, the TGI in the experiment on UO-31 renal, with OVCAR-5 ovarian, in the experiment on SN12C renal, in the experiment with HCC-2998 colon and with EKVX NSCLC was over 100 µM throughout.

As for `O=[N+]([O-])C(=C(Nc1ccccc1)Nc1ccccc1)/C(Cl)=C(\Cl)Br`, the TGI in the experiment on HT29 colon is 29.7 µM; with SK-MEL-28 melanoma, 29.9 µM; in the experiment on HCT-116 colon, 20.1 µM; in the experiment with HOP-92 NSCLC it was 33.6 µM; in the experiment on DU-145 prostate, 31.1 µM; in the experiment on NCI/ADR-RES ovarian, 29.7 µM. Also, the TGI turned out to be 43.1 µM in the experiment with SF-268 CNS; 55.1 µM in the experiment on HOP-62 NSCLC; 25 µM with ACHN renal; 28.2 µM in the experiment with U251 CNS; 6.44 µM in the experiment with CCRF-CEM leukemia; 21.7 µM with UO-31 renal. The TGI in the experiment with OVCAR-5 ovarian is 22.5 µM; with SF-539 CNS, 46 µM; in the experiment with SN12C renal, 26.6 µM; in the experiment with HCC-2998 colon it was 35 µM; in the experiment on EKVX NSCLC it was 32.1 µM.

Turning to `COc1ccc(N=Nc2ccc3oc(=O)c(C(=O)Nc4ccc(Cl)cc4)cc3c2)cc1`, the TGI in the experiment on HT29 colon, in the experiment with SK-MEL-28 melanoma, with HOP-92 NSCLC, in the experiment on DU-145 prostate, with NCI/ADR-RES ovarian and with SF-268 CNS was over 10 µM throughout. Further, the TGI in the experiment with HOP-62 NSCLC, in the experiment on COLO 205 colon, with IGROV1 ovarian, with ACHN renal, in the experiment on U251 CNS and in the experiment with UO-31 renal was over 10 µM each time. Also, the TGI with OVCAR-5 ovarian, with SF-539 CNS, in the experiment with SN12C renal, in the experiment with HCC-2998 colon and in the experiment with EKVX NSCLC was over 10 µM throughout.

In the case of `CCCCCCCCCCCCCCCC(=O)OC(COC(C)=O)CO[P+](=O)O` (stereo not drawn), the TGI with SK-MEL-28 melanoma was over 100 µM; with HOP-92 NSCLC, 34 µM; in the experiment with DU-145 prostate, over 100 µM; in the experiment on NCI/ADR-RES ovarian it was 80.8 µM; in the experiment on SF-268 CNS, 49.6 µM; in the experiment on COLO 205 colon it was over 100 µM. Moreover, the TGI is 59.6 µM in the experiment on IGROV1 ovarian; 92.8 µM with ACHN renal; 45.3 µM with U251 CNS; over 100 µM in the experiment with CCRF-CEM leukemia; 97.1 µM with UO-31 renal; 38.6 µM in the experiment on OVCAR-5 ovarian. Besides, the TGI in the experiment on SF-539 CNS was 53.3 µM; in the experiment on SN12C renal, over 100 µM; in the experiment with HCC-2998 colon, 42.7 µM; with EKVX NSCLC, over 100 µM.

With `CCNc1nc2c(ncn2C2CC(O)C(COP(=O)(O)O)O2)c(=O)[nH]1` (stereo not drawn), the TGI with HT29 colon, in the experiment on SK-MEL-28 melanoma, in the experiment on HCT-116 colon, in the experiment with HOP-92 NSCLC, with DU-145 prostate and with NCI/ADR-RES ovarian was over 100 µM in each case. For the same molecule, the TGI in the experiment on SF-268 CNS, in the experiment on HOP-62 NSCLC, with COLO 205 colon, with IGROV1 ovarian, in the experiment on ACHN renal and in the experiment with U251 CNS was over 100 µM each time. Further, the TGI with OVCAR-5 ovarian, with SF-539 CNS, with SN12C renal, in the experiment on HCC-2998 colon and in the experiment on EKVX NSCLC was over 100 µM throughout.

For the molecule `Cc1sc(N)c(S(=O)(=O)c2ccccc2)c1C`, the TGI with HT29 colon, in the experiment on SK-MEL-28 melanoma, with HCT-116 colon, in the experiment with HOP-92 NSCLC, in the experiment with DU-145 prostate and in the experiment with NCI/ADR-RES ovarian was over 100 µM throughout. In addition, the TGI with SF-268 CNS, in the experiment on COLO 205 colon, in the experiment with IGROV1 ovarian, with ACHN renal, in the experiment on U251 CNS and with CCRF-CEM leukemia was over 100 µM in each case. Moreover, the TGI with UO-31 renal was over 100 µM; in the experiment with OVCAR-5 ovarian, over 100 µM; with SF-539 CNS it was 71 µM; with SN12C renal it was over 100 µM; with HCC-2998 colon, over 100 µM; in the experiment with EKVX NSCLC it was over 100 µM.

On to `Clc1ccc(C=NC23CC4CC(CC(C4)C2)C3)cc1Cl`, for which the TGI with HT29 colon, in the experiment on SK-MEL-28 melanoma, in the experiment on HCT-116 colon, in the experiment with HOP-92 NSCLC, in the experiment on DU-145 prostate and in the experiment on NCI/ADR-RES ovarian was over 10 µM each time. The TGI with SF-268 CNS, in the experiment with HOP-62 NSCLC, in the experiment on COLO 205 colon, with IGROV1 ovarian, in the experiment with ACHN renal and in the experiment on U251 CNS was over 10 µM throughout. The TGI in the experiment on CCRF-CEM leukemia, in the experiment with OVCAR-5 ovarian, with SF-539 CNS, with SN12C renal, in the experiment with HCC-2998 colon and in the experiment on EKVX NSCLC was over 10 µM each time.

For `C[C@@H]1OC(=O)C[C@H]2CC(=O)N(CCC3CN(S(=O)(=O)C(F)(F)F)c4ccccc43)C[C@@H]21` (stereo partly drawn), the TGI with HT29 colon, with SK-MEL-28 melanoma, in the experiment with HCT-116 colon, in the experiment with HOP-92 NSCLC, in the experiment with DU-145 prostate and in the experiment with NCI/ADR-RES ovarian was over 100 µM each time. The TGI with HOP-62 NSCLC, in the experiment with COLO 205 colon, in the experiment on IGROV1 ovarian, in the experiment with ACHN renal, in the experiment with U251 CNS and in the experiment with CCRF-CEM leukemia was over 100 µM in each case. The TGI in the experiment on UO-31 renal, with OVCAR-5 ovarian, with HCC-2998 colon and with EKVX NSCLC was over 100 µM each time.

Take `Nc1cc(N2CCOCC2)nc(=O)n1-c1ccc(Cl)cc1`: the TGI in the experiment with HT29 colon, in the experiment on SK-MEL-28 melanoma, with HCT-116 colon, in the experiment on HOP-92 NSCLC, in the experiment with DU-145 prostate and with NCI/ADR-RES ovarian was over 100 µM in each case. Further, the TGI in the experiment with HOP-62 NSCLC, in the experiment with COLO 205 colon, in the experiment on IGROV1 ovarian, in the experiment on ACHN renal, in the experiment on U251 CNS and with CCRF-CEM leukemia was over 100 µM in each case. The TGI in the experiment on UO-31 renal, in the experiment with OVCAR-5 ovarian, with SF-539 CNS, in the experiment with SN12C renal, in the experiment with HCC-2998 colon and in the experiment with EKVX NSCLC was over 100 µM each time.

Take `CNC(=O)CNC(=O)C(Cc1ccc(NC(=O)CCCCC(C)=O)cc1)NC(=O)C(CCC(=O)OCc1ccccc1)NC(=O)OC(C)(C)C` (stereo not drawn): the TGI with HT29 colon, with SK-MEL-28 melanoma, in the experiment on HCT-116 colon, in the experiment with HOP-92 NSCLC, in the experiment with DU-145 prostate and with NCI/ADR-RES ovarian was over 100 µM in each case. The TGI with SF-268 CNS, with HOP-62 NSCLC, in the experiment on COLO 205 colon, with IGROV1 ovarian, with ACHN renal and in the experiment with U251 CNS was over 100 µM in each case. The TGI with UO-31 renal, in the experiment with OVCAR-5 ovarian, in the experiment on SF-539 CNS, in the experiment with SN12C renal, with HCC-2998 colon and in the experiment on EKVX NSCLC was over 100 µM in each case.
